The test system of data set [1] is ACHN (renal cancer) subcutaneous tumors. Put plainly: ACHN xenograft, PAC-1/cholesterol pellet. The class given is in vivo, mice.
Data set [2] deals with T1, procaspase-3 (Homo sapiens (Human), UniProt P42574). Put plainly: Effect of pH on PAC-1 activation of procaspase-3. The class given is biochemical. The note with it: low pH values. As to the method:
The plate was then incubated for 12 hours at 37° C. 10 μL of a 2 mM solution of Ac-DEVD-pNA (SEQ ID NO: 28) in caspase assay buffer was then added to each well. […] The slope of the linear portion for each well was determined and the fold increase in activation for each pH value was calculated.

For data set [3], the system named is NCI-H226 (lung cancer) xenograft. Put plainly: NCI-H226 xenograft, intraperitoneal PAC-1. The format is in vivo, mice. To be noted: i.p. 10 mg/kg. How it is done: A xenograft model was employed using NCI-H226 (lung cancer) cells. […] A comparison of efficacy was performed with gefitinib (Iressa™; AstraZeneca, Wilmington, Del.) at 40 mg/kg using 5 mice per group.

In data set [4] the test system is HL-60 cells. Put plainly: Condensed chromatin staining (Hoechst). The class given is cell-based, human. The note with it: HL-60, 20 h, 100 μM. How it is done:
The cells were then washed in PBS buffer followed by the addition of ice-cold 100% ethanol. The cells were fixed overnight at 4° C. Fixed cells were incubated with 2 μg/mL Hoechst-33258 for 30 minutes at room temperature. A drop of cells was then added to a microscope slide and covered with a No. 1 thickness coverslip.

Data set [5] concerns cells from adjacent non-cancerous tissue. Put plainly: Cell death in cells from adjacent non-cancerous colon tissue. The format is cell-based, human. The source says: To test this direct, small molecule-mediated procaspase-3 activation strategy in clinical isolates of cancer, we obtained freshly resected colon tumors (together with adjacent non-cancerous tissue) from 18 patients from Carle Foundation Hospital (Urbana, Ill.).

The next data set has as its target procaspase-3 mutant DDA (Homo sapiens, UniProt P42574, D181A). Put plainly: Activation of safety catch mutant procaspase-3 (DDA). The class given is biochemical. The text has this: (§1) Safety catch mutations. The DDD procaspase-3 safety catch (SEQ ID NO:1; SEQ ID NO:2; SEQ ID NO:9) was mutated to ADD (SEQ ID NO:3, SEQ ID NO:4, SEQ ID NO:10), DAD (SEQ ID NO:5, SEQ ID NO:6, SEQ ID NO:11) and DDA (SEQ ID NO:7, SEQ ID NO:8, SEQ ID NO:12) using the quickchange strategy with the following primers, gacagacagtggtgttgCGgatgacatggcgtgtcataaaatacc (SEQ ID NO:13), gacagacagtggtgttgatgCtgacatggcgtgtcataaaatacc (SEQ ID NO:14) and gacagacagtggtgttgatgatgCcatggcgtgtcataaaatacc (SEQ ID NO:15) respectively. See also FIG. 9 and FIG. 10. Mutated bases are underlined and capitalized. All mutant plasmids were sequenced to ensure proper sequence throughout the gene. All mutant plasm ids were expressed exactly as wild-type procaspase-3 as described above. […] The plate was then incubated for 12 hours at 37° C. 10 μL of a 2 mM solution of Ac-DEVD-pNA (SEQ ID NO: 28) in caspase assay buffer was then added to each well. The plate was read every 2 minutes at 405 nm for 2 hours in a Spectra Max Plus 384 well plate reader. The slope of the linear portion for each well was determined and the fold increase in activity for each mutant was calculated.

Data set [6] concerns HL-60 cells. Description: Annexin V staining (phosphatidylserine exposure). The format is cell-based, human. How it is done:
Cells were harvested by centrifugation and washed twice in PBS. The cells were then washed in AnnexinV binding buffer (10 mM HEPES, 140 mM NaCl, 2.5 mM CaCl2, pH 7.4) and resuspended in 100 μL of Annexin V binding buffer. 5 μL of annexin V, Alexa Fluor 488 conjugate was added and the tubes were incubated at room temperature for 15 minutes protected from light. 400 μL of Annexin V binding buffer was then added, followed by the addition of 1 μL of a 1 mg/mL solution of propidium iodide. The fluorescent intensity of each cell was determined by flow cytometry at 525 nm (green channel) and 675 nm (red channel). At least 50,000 cells were analyzed in each experiment.

A further data set concerns the target procaspase-3 mutant ADD. Description: Activation of safety catch mutant procaspase-3 (ADD). The format is biochemical, Homo sapiens.
From the text: as §1

The target in data set [7] is T1, procaspase-3. Put plainly: In vitro activation of purified procaspase-3 (activation curves, Ac-DEVD-pNA). The format is biochemical. The note with it: for EC50: read-out: EC50 for activation of procaspase-3. How it is done:
Activation curves. […] The plate was read every 2 minutes at 405 nm for 2 hours in a Spectra Max Plus 384 well plate reader. The slope of the linear portion for each well was determined and the fold increase in activation from non-treated control wells was calculated. […]

Another data set has as its system HL-60 cell line. Put plainly: IC50 of PAC-1 derivatives in HL-60 cell line (Table 5). The format is cell-based. The text has this: The results are indicated in Table 5 (where L- and R-designations refer to structures shown in the AX and BX series above, respectively).
Another data set has as its target procaspase-3 mutant DAD (Homo sapiens, UniProt P42574, D180A). Put plainly: Activation of safety catch mutant procaspase-3 (DAD). The class given is biochemical. To be noted: Asp-Ala-Asp mutant.
From the text: as §1

For another data set, the target named is active caspase-3 (Homo sapiens (Human), UniProt P42574). Put plainly: Effect on fully processed caspase-3 enzyme. The format is biochemical. How it is done: Activation curves. The dose dependence of procaspase-3 activators was determined by adding various concentrations of compound to 90 μL of a 50 ng/mL procaspase-3, active caspase-3, procaspase-7 or active caspase-7 in caspase assay buffer in a 96-well plate. The plate was then incubated for 12 hours at 37° C. 10 μL of a 2 mM solution of Ac-DEVD-pNA (SEQ ID NO: 28) in caspase assay buffer was then added to each well. The plate was read every 2 minutes at 405 nm for 2 hours in a Spectra Max Plus 384 well plate reader. The slope of the linear portion for each well was determined and the fold increase in activation from non-treated control wells was calculated.
active caspase-3, sequence (P42574 29-175): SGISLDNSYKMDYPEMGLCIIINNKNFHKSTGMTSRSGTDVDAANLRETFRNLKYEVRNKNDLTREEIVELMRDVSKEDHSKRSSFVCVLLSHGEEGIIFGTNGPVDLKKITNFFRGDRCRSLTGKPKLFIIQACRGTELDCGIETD
active caspase-3, sequence (P42574 176-277): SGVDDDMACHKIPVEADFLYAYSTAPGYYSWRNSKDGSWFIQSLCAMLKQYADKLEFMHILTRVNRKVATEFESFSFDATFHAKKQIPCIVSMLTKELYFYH

Data set [8] relates to NCI-H226 (lung cancer) xenograft tumors. Description: NCI-H226 subcutaneous xenograft, oral gavage. The format is in vivo, mice. To be noted: oral gavage once a day for 21 days, 50 or 100 mg/kg.

Molecules are shown by their SMILES. “And” between values parts separate entries of the source, which are not always exact repeats. Identical values can stand only once. “Also recorded” adds a separate entry of the source. Like-named read-outs stand apart in the source and are kept apart here.

T1 sequence (P42574 whole entry): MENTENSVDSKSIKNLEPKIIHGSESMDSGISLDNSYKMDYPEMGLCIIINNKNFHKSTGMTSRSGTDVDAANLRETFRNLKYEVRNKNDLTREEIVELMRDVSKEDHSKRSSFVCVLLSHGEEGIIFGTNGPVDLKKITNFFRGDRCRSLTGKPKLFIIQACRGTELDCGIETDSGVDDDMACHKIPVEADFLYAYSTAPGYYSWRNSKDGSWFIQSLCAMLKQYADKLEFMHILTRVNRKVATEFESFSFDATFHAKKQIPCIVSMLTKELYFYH
procaspase-3 mutant DAD, sequence (P42574 29-175 limits assumed): as the sequence (P42574 29-175) above
procaspase-3 mutant DAD, sequence (P42574 176-277 D180A limits assumed): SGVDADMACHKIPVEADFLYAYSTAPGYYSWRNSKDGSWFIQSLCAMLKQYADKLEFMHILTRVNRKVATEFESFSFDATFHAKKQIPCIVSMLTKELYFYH
procaspase-3 mutant DDA, sequence (P42574 29-175 limits assumed): as the sequence (P42574 29-175) above
procaspase-3 mutant DDA, sequence (P42574 176-277 D181A limits assumed): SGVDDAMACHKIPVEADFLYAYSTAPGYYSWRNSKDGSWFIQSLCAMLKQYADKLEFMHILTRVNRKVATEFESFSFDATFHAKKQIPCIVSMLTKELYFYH

Usually IC50 stands for the concentration needed to halve the response being measured. The term EC50 denotes the concentration at which the effect is half-maximal. On to `C=CCc1cccc(/C=N/NC(=O)CN2CCN(Cc3ccccc3)CC2)c1O` [PAC-1], for which the food consumption result in data set [1] (last week of the experiment, 0, 1, 5 mg pellets) is “no difference in food consumption”. Moreover, the “tumor growth, ACHN xenograft” value in data set [1] (pellet containing 5 mg of PAC-1, about 8 weeks) is reported as “significantly retarded; also recorded: reduces the growth of tumors”. In addition, the “effect of PAC-1 on procaspase-3 at low pH” value on procaspase-3 [2] was “abolished”. The “growth in tumor volume, NCI-H226 xenograft” value in [3] is recorded as “associated with reducing growth in tumor volume”. In the data set with HL-60 cells [4], the chromatin condensation result is “significant chromatin condensation”. In addition, the IC50 is 5.02 to 9.98 µM in data set [5] (Homo sapiens, read-out: PAC-1, IC50, Normal (adjacent non-cancerous tissue), per patient, 18 patients); 6.88 µM and 6.28 µM and 7.34 µM and 5.67 µM and 6.54 µM and 9.98 µM and 5.94 µM and 5.63 µM and 5.5 µM and 7.58 µM and 5.96 µM and 5.02 µM and 5.17 µM and 6.39 µM and 6.78 µM and 9.79 µM and 6.61 µM and 9.5 µM in data set [5] (read-out: PAC-1, IC50, Normal (adjacent non-cancerous tissue), per patient, 18 patients); 54.6 µM in the data set on HL-60 cell line (Homo sapiens, HL-60, Table 5). The EC50 on procaspase-3 mutant DDA is 113 µM; on procaspase-3 mutant ADD, 131 µM; at procaspase-3 [7] (in vitro) it was approximately 0.22 µM; at procaspase-3 [7] (wild type procaspase-3 (DDD)), 0.22 µM; at procaspase-3 mutant DAD, 2.77 µM. For the same compound, the “effectiveness in Annexin-V assay” value with HL-60 cells [6] (5 μM) is given as “effective”. Moreover, the “phosphatidylserine exposure on the cell membrane” value in the data set on HL-60 cells [6] (HL-60, 20 h, 100 μM) is recorded as “considerable phosphatidylserine exposure”. Besides, the “procaspase-3 activation in vitro (in words)” value on procaspase-3 [7] was “activate procaspase-3 in vitro”. The “Activity (direct activation of purified procaspase-3 in vitro)” value at procaspase-3 [7] (Table 2) was “Active”. In addition, the “Fold better than PAC-1” value with HL-60 cell line (HL-60 IC50 relative to PAC-1) came to 1.0 fold. On active caspase-3, the “effect on catalytic activity of fully processed caspase-3 enzyme” value is reported as “no effect”. In data set [8], the “tumor growth, NCI-H226 xenograft” value was “significantly retards tumor growth in a dose-dependent manner”.

Values taken from patent US10166229B2, “Compounds and methods for the treatment of cancer” (The Board of Trustees of the University of Illinois, priority 2005, dated 2019).
